Test results as given in PMC8421423, “Cellular model system to dissect the isoform-selectivity of Akt inhibitors” (Nature Communications, 2021).
Values joined by “and” are separate entries in the source; they are usually repeats but may differ in a detail not shown here. Equal entries are not always repeated. Where two headings read alike, the source gives them in different places.

Columns and labels:
[1] = system: parental Ba/F3 cells; test: CellTiter-Glo cell viability assay; type: cell-based, murine
Procedure: (§1) On day 0, cells were plated into white 384-well cell culture plates (Greiner Bio-One) using a Multidrop reagent dispenser (Thermo Fisher Scientific) at cell numbers that ensure linear and optimal luminescent signal intensity (Ba/F3myr-Akt1: 600 cells/well, Ba/F3myr-Akt2: 800 cells/well, Ba/F3myr-Akt3: 800 cells/well). […] Cell viability was analyzed on day 4 using the CellTiter-Glo Assay (Promega) as per the manufacturer’s instructions. […] All experimental points were measured in duplicates for each plate and were replicated in at least three plates.

[2] = system: Ba/F3^myr-Akt1 cells; test: CellTiter-Glo cell viability assay; details: for Log ratio EC50 [Akt] / EC50 [Akt], Akt1 / Akt2: cell viability assay Ba/F3 myr-Akt cells, log units
Procedure: as §1

[3] = system: Ba/F3^myr-Akt2 cells; test: CellTiter-Glo cell viability assay
[4] = system: Ba/F3^myr-Akt3 cells; test: CellTiter-Glo cell viability assay; details: for Log ratio EC50 [Akt] / EC50 [Akt], Akt3 / Akt2: cell viability assay Ba/F3 myr-Akt cells, log units
[5] = biological target: T1, Akt1 (Homo sapiens, UniProt P31749); test: STK HTRF KinEASE activity-based assay (IC50); details: for Log ratio IC50 [Akt] / IC50 [Akt], Akt1 / Akt2: biochemical activity based assay, log units
T1 sequence (P31749 whole entry): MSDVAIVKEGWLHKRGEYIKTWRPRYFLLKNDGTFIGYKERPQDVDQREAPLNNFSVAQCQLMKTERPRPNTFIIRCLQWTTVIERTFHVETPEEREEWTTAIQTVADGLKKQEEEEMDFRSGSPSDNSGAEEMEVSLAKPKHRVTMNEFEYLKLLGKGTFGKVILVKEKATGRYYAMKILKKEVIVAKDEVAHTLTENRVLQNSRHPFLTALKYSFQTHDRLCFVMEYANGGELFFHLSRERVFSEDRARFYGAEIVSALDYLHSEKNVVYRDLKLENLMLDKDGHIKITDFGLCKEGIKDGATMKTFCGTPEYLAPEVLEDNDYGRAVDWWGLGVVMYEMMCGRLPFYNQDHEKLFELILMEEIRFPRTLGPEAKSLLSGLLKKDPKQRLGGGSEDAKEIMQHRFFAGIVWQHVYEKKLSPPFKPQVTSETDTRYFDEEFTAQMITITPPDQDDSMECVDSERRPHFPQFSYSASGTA

[6] = biological target: T2, Akt2 (Homo sapiens, UniProt P31751); test: STK HTRF KinEASE activity-based assay (IC50)
T2 sequence (P31751 whole entry): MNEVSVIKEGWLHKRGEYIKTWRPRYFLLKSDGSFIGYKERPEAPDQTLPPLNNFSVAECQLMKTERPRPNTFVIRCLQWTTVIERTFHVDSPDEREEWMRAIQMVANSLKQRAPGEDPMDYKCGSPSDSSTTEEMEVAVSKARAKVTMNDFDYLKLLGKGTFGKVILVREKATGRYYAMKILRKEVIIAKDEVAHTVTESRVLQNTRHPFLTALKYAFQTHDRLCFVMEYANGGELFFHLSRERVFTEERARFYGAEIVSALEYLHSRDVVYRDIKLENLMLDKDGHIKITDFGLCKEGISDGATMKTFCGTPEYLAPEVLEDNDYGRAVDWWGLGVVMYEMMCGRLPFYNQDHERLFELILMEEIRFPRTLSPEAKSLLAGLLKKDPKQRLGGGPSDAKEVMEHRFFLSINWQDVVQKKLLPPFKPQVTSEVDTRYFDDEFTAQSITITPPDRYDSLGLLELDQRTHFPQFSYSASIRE

[7] = biological target: Akt3 (Homo sapiens, UniProt Q9Y243); test: STK HTRF KinEASE activity-based assay (IC50)
Chain of Akt3 (Q9Y243 whole entry): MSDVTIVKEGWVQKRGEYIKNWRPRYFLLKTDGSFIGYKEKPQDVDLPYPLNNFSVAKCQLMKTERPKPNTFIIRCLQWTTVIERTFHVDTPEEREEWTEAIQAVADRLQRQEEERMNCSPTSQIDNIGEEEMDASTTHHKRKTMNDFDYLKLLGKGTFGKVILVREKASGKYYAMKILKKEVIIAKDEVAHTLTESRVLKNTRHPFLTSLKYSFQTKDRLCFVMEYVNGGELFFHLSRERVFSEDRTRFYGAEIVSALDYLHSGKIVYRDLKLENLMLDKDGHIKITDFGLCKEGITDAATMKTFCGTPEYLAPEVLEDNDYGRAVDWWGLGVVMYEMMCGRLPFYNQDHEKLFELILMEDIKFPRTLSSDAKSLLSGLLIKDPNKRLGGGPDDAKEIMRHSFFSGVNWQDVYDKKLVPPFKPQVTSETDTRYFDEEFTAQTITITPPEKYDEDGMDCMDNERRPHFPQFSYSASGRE

[8] = biological target: T2, Akt2; test: PhosphoSens continuous fluorometric kinetic enzyme assay
Procedure: (§2) By addition of either 8 nM Akt1, 2 nM Akt2, or 5 nM Akt3 (final concentrations) the reactions were initiated. […] Afterwards the kobs-values were plotted versus the inhibitor concentrations [I] and then fit to the following hyperbolic Eq.

[9] = biological target: T1, Akt1; test: as above
Procedure: as §2

[10] = Mus musculus, BaF3, parental cells, single replicates, read-out: CTG BaF3, individual determinations
[11] = parental cells, single replicates, read-out: CTG BaF3, individual determinations
[12] = Mus musculus, read-out: CTG BaF3myr-Akt1, individual determinations, single replicates
[13] = read-out: CTG BaF3myr-Akt1, individual determinations, single replicates
[14] = Mus musculus, read-out: CTG BaF3myr-Akt2, Mean, mean of replicates
[15] = Mus musculus, read-out: CTG BaF3myr-Akt2, individual determinations, single replicates
[16] = read-out: CTG BaF3myr-Akt2, individual determinations, single replicates
[17] = Mus musculus, read-out: CTG BaF3myr-Akt3, Mean, mean of replicates
[18] = Mus musculus, read-out: CTG BaF3myr-Akt3, individual determinations, single replicates
[19] = read-out: CTG BaF3myr-Akt3, individual determinations, single replicates
[20] = HTRF IC50 Akt1, individual determinations, single replicates
[21] = IC50 Akt1, HTRF, ATP at KM, 1 h preincubation
[22] = HTRF IC50 Akt2, Mean, mean of replicates
[23] = HTRF IC50 Akt2, individual determinations, single replicates
[24] = IC50 Akt2, HTRF, ATP at KM, 1 h preincubation
[25] = HTRF IC50 Akt3, Mean, mean of replicates
[26] = HTRF IC50 Akt3, individual determinations, single replicates
[27] = IC50 Akt3, HTRF, ATP at KM, 1 h preincubation
[28] = Ki Akt2, Mean, mean of replicates
[29] = Ki Akt2, individual determinations, single replicates
[30] = read-out: kinact /Ki Akt2, individual determinations, single replicates
[31] = read-out: kinact Akt2, individual determinations, single replicates

| SMILES | EC50 [1, 10] [µM] | EC50 [1, 11] | EC50 [2, 12] [µM] | Log ratio EC50 [Akt] / EC50 [Akt], Akt1 / Akt2 [2] | EC50 [2, 13] | EC50 [3, 14] [µM] | EC50 [3, 15] [µM] | EC50 [3, 16] | EC50 [4, 17] [µM] | EC50 [4, 18] [µM] | Log ratio EC50 [Akt] / EC50 [Akt], Akt3 / Akt2 [4] | EC50 [4, 19] | IC50 [5, 20] | IC50 [5, 21] [µM] | Log ratio IC50 [Akt] / IC50 [Akt], Akt1 / Akt2 [5] | IC50 [6, 22] [µM] | IC50 [6, 23] | IC50 [6, 24] [µM] | IC50 [7, 25] [µM] | IC50 [7, 26] | also measured |
| --- | --- | --- | --- | --- | --- | --- | --- | --- | --- | --- | --- | --- | --- | --- | --- | --- | --- | --- | --- | --- | --- |
| C=CC(=O)Nc1ccc2[nH]c(=O)n(C3CCN(Cc4ccc(-c5ncc(C(=O)NCC(C)C)cc5-c5ccccc5)cc4)CC3)c2c1 [compound 10] | 15.3 | 19.4 µM and > 30 µM | > 30 | 0.52 | 28.8 µM and 21.1 µM | 7.99 | 7.98 | 5.41 µM and 9.28 µM | 24.3 | 25.3 | -0.48 | 25.7 µM and 21.8 µM | 1.89 µM and 1.69 µM and 1.56 µM | 1.72 ± 0.166 | 1.26 | 0.0937 | 0.0924 µM and 0.0898 µM and 0.0989 µM | 0.094 ± 0.004 | 1.56 | 1.65 µM and 1.47 µM and 1.57 µM | IC50 ([5]; HTRF IC50 Akt1, Mean, mean of replicates): 1.72 µM; IC50 [7, 27]: 1.56 ± 0.075 µM; Ki ([8]; Ki Akt2): 0.004 ± 0.001 µM; Ki [8, 28]: 0.00418 µM; Ki [8, 29]: 0.0051 µM and 0.0041 µM and 0.0033 µM; kinact/KI ([8]; read-out: kinact /Ki Akt2): 25000 ± 5000 M⁻¹ s⁻¹; kinact/KI [8, 30]: 27000 M⁻¹ s⁻¹; kinact ([8]; read-out: kinact Akt2): 0.0001 s⁻¹; kinact ([8]; read-out: kinact Akt2, Mean, mean of replicates): 0.0001 s⁻¹; kinact [8, 31]: 0.000133 s⁻¹; kinact Akt2, individual determinations ([8]; single replicates): 0.00457 min⁻¹ and 0.006 min⁻¹ |
| C=CC(=O)Nc1ccc2[nH]c(=O)n(C3CCN(Cc4ccc(-c5ncc(Cn6ccnc6)cc5-c5ccccc5)cc4)CC3)c2c1 [compound 11] | > 30 | > 30 µM | 28.2 | 1.03 | 27.1 µM and > 30 µM (2×) | 2.69 | 3.19 | 2.51 µM and 2.37 µM | 18.6 | 18.3 | -0.84 | 13.7 µM and 17.7 µM and 24.6 µM | 0.778 µM and 0.571 µM and 0.58 µM | 0.643 ± 0.095 | 0.93 | 0.0761 | 0.0782 µM and 0.0618 µM and 0.0883 µM | 0.076 ± 0.011 | 1.89 | 1.36 µM and 1.74 µM and 2.57 µM | EC50 ([1]; Mus musculus, BaF3, CTG, parental BaF3 cell line, read-out: EC50 BaF3): > 30 µM; EC50 ([1]; Mus musculus, BaF3, parental cells, mean of replicates, read-out: CTG BaF3, Mean): > 30 µM; IC50 [7, 27]: 1.89 ± 0.621 µM; Ki ([9]; Ki Akt1): 0.009 ± 0.002 µM; kinact/KI ([9]; read-out: kinact /Ki Akt1): 26000 ± 2000 M⁻¹ s⁻¹; kinact ([9]; read-out: kinact Akt1): 0.0002 s⁻¹; Ki ([8]; Ki Akt2): 0.011 ± 0.001 µM; Ki [8, 28]: 0.0102 µM; Ki [8, 29]: 0.0089 µM and 0.0113 µM and 0.0103 µM; kinact/KI ([8]; read-out: kinact /Ki Akt2): 20000 ± 4000 M⁻¹ s⁻¹; kinact/KI ([8]; read-out: kinact /Ki Akt2, Mean, mean of replicates): 20000 M⁻¹ s⁻¹; kinact/KI [8, 30]: 25000 M⁻¹ s⁻¹; kinact ([8]; read-out: kinact Akt2): 0.0002 s⁻¹; kinact [8, 31]: 0.000217 s⁻¹; kinact Akt2, individual determinations ([8]; single replicates): 0.013 min⁻¹ and 0.009 min⁻¹ |
